# Assay results: patent publication US20110039721A1, “METHOD FOR PREDICTION ABOUT CARCINOGENICITY OF SUBSTANCE IN RODENT” (Chemicals Evaluation and Research Institute, priority 2007, published 2011)
# Columns and labels:
# [1] = system: liver; conditions: classification of the substance (Cr+/Cr−); cited from earlier work
# [2] = system: mRNA expressed from the genes (A) to (D) in rat liver; assay: Behavior of genes (mRNA expression level, oligo-DNA microarray) in rat liver after 28-day oral administration; format: in vivo; conditions: mRNA vs vehicle control group; for Behavior of gene caused by administration of chemical substance, Gene No. 4846 / Behavior of gene caused by administration of chemical substance, Gene No. 2026 / Behavior of gene caused by administration of chemical substance, Gene No. 4218 / Behavior of gene caused by administration of chemical substance, Gene No. 6182 / Behavior of gene caused by administration of chemical substance, Gene No. 5600: gene group (A); for Behavior of gene caused by administration of chemical substance, Gene No. 4846: Unigene No. Rn.144554; for Behavior of gene caused by administration of chemical substance, Gene No. 2026 / Behavior of gene caused by administration of chemical substance, Gene No. 4218: Unigene No. Rn.167075; for Behavior of gene caused by administration of chemical substance, Gene No. 6182: Unigene No. Rn.5834; for Behavior of gene caused by administration of chemical substance, Gene No. 5600: Unigene No. Rn.9836; for Behavior of gene caused by administration of chemical substance, Gene No. 1494 / Behavior of gene caused by administration of chemical substance, Gene No. 2045 / Behavior of gene caused by administration of chemical substance, Gene No. 2203: gene group (B); for Behavior of gene caused by administration of chemical substance, Gene No. 1494: Unigene No. Rn.1430; for Behavior of gene caused by administration of chemical substance, Gene No. 2045: Unigene No. Rn.19329; for Behavior of gene caused by administration of chemical substance, Gene No. 2203: Unigene No. Rn.21240; for Behavior of gene caused by administration of chemical substance, Gene No. 533 / Behavior of gene caused by administration of chemical substance, Gene No. 725 / Behavior of gene caused by administration of chemical substance, Gene No. 1163 / Behavior of gene caused by administration of chemical substance, Gene No. 4973 / Behavior of gene caused by administration of chemical substance, Gene No. 4095 / Behavior of gene caused by administration of chemical substance, Gene No. 1334 / Behavior of gene caused by administration of chemical substance, Gene No. 6620 / Behavior of gene caused by administration of chemical substance, Gene No. 6303 / Behavior of gene caused by administration of chemical substance, Gene No. 5878 / Behavior of gene caused by administration of chemical substance, Gene No. 1131 / Behavior of gene caused by administration of chemical substance, Gene No. 1562 / Behavior of gene caused by administration of chemical substance, Gene No. 1741 / Behavior of gene caused by administration of chemical substance, Gene No. 893 / Behavior of gene caused by administration of chemical substance, Gene No. 6026 / Behavior of gene caused by administration of chemical substance, Gene No. 154 / Behavior of gene caused by administration of chemical substance, Gene No. 1993 / Behavior of gene caused by administration of chemical substance, Gene No. 813 / Behavior of gene caused by administration of chemical substance, Gene No. 2494 / Behavior of gene caused by administration of chemical substance, Gene No. 2546 / Behavior of gene caused by administration of chemical substance, Gene No. 3776 / Behavior of gene caused by administration of chemical substance, Gene No. 3929 / Behavior of gene caused by administration of chemical substance, Gene No. 1119 / Behavior of gene caused by administration of chemical substance, Gene No. 6742 / Behavior of gene caused by administration of chemical substance, Gene No. 5634: gene group (C); for Behavior of gene caused by administration of chemical substance, Gene No. 533: Unigene No. Rn.106184; for Behavior of gene caused by administration of chemical substance, Gene No. 725: Unigene No. Rn.108075; for Behavior of gene caused by administration of chemical substance, Gene No. 1163: Unigene No. Rn.11766; for Behavior of gene caused by administration of chemical substance, Gene No. 4973: Unigene No. Rn.118529; for Behavior of gene caused by administration of chemical substance, Gene No. 4095: Unigene No. Rn.119024; for Behavior of gene caused by administration of chemical substance, Gene No. 1334 / Behavior of gene caused by administration of chemical substance, Gene No. 6620: Unigene No. Rn.120914; for Behavior of gene caused by administration of chemical substance, Gene No. 6303: Unigene No. Rn.123063; for Behavior of gene caused by administration of chemical substance, Gene No. 5878: Unigene No. Rn.143213; for Behavior of gene caused by administration of chemical substance, Gene No. 1131: Unigene No. Rn.144946; for Behavior of gene caused by administration of chemical substance, Gene No. 1562: Unigene No. Rn.14744; for Behavior of gene caused by administration of chemical substance, Gene No. 1741: Unigene No. Rn.1647; for Behavior of gene caused by administration of chemical substance, Gene No. 893: Unigene No. Rn.164817; for Behavior of gene caused by administration of chemical substance, Gene No. 6026: Unigene No. Rn.167685; for Behavior of gene caused by administration of chemical substance, Gene No. 154: Unigene No. Rn.185941; for Behavior of gene caused by administration of chemical substance, Gene No. 1993: Unigene No. Rn.18728; for Behavior of gene caused by administration of chemical substance, Gene No. 813: Unigene No. Rn.201760; for Behavior of gene caused by administration of chemical substance, Gene No. 2494: Unigene No. Rn.23969; for Behavior of gene caused by administration of chemical substance, Gene No. 2546: Unigene No. Rn.24561; for Behavior of gene caused by administration of chemical substance, Gene No. 3776: Unigene No. Rn.43232; for Behavior of gene caused by administration of chemical substance, Gene No. 3929: Unigene No. Rn.4620; for Behavior of gene caused by administration of chemical substance, Gene No. 1119: Unigene No. Rn.9757; for Behavior of gene caused by administration of chemical substance, Gene No. 6742: Unigene No. Rn.9779; for Behavior of gene caused by administration of chemical substance, Gene No. 5634: Unigene No. Rn.9862; for Behavior of gene caused by administration of chemical substance, Gene No. 5726: gene group (D), Unigene No. Rn.9939
# Method in brief: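 Groups of four male F344 SPF rats aged 5 weeks are gavaged once a day for 28 days with test chemical in solvent or with solvent alone at equal volume. Total RNA comes from liver taken on day 28. Fold change of 1.5 or 1/1.5 versus control, directionally consistent, defines significance.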
# [3] = classification of the substance (M+/M−); cited from earlier work
# [4] = system: rodent; conditions: classification of the substance (C+/C−); cited from earlier work
Structure (SMILES),"Behavior of gene caused by administration of chemical substance, Gene No. 4846 [2]","Behavior of gene caused by administration of chemical substance, Gene No. 2026 [2]","Behavior of gene caused by administration of chemical substance, Gene No. 4218 [2]","Behavior of gene caused by administration of chemical substance, Gene No. 6182 [2]","Behavior of gene caused by administration of chemical substance, Gene No. 5600 [2]","Behavior of gene caused by administration of chemical substance, Gene No. 1494 [2]","Behavior of gene caused by administration of chemical substance, Gene No. 2045 [2]","Behavior of gene caused by administration of chemical substance, Gene No. 2203 [2]","Behavior of gene caused by administration of chemical substance, Gene No. 533 [2]","Behavior of gene caused by administration of chemical substance, Gene No. 725 [2]","Behavior of gene caused by administration of chemical substance, Gene No. 1163 [2]","Behavior of gene caused by administration of chemical substance, Gene No. 4973 [2]","Behavior of gene caused by administration of chemical substance, Gene No. 4095 [2]","Behavior of gene caused by administration of chemical substance, Gene No. 1334 [2]","Behavior of gene caused by administration of chemical substance, Gene No. 6620 [2]","Behavior of gene caused by administration of chemical substance, Gene No. 6303 [2]","Behavior of gene caused by administration of chemical substance, Gene No. 5878 [2]","Behavior of gene caused by administration of chemical substance, Gene No. 1131 [2]","Behavior of gene caused by administration of chemical substance, Gene No. 1562 [2]","Behavior of gene caused by administration of chemical substance, Gene No. 1741 [2]",also measured
"CCSCCC(N)C(=O)O (racemic) [TS070, D,L-Ethionine]",−,−,−,−,−,+,−,+,−,+,−,−,−,−,−,−,−,−,−,−,"Liver carcinogenicity [1]: Cr+; Behavior of gene caused by administration of chemical substance, Gene No. 893 [2]: −; Behavior of gene caused by administration of chemical substance, Gene No. 6026 [2]: −; Behavior of gene caused by administration of chemical substance, Gene No. 154 [2]: −; Behavior of gene caused by administration of chemical substance, Gene No. 1993 [2]: −; Behavior of gene caused by administration of chemical substance, Gene No. 813 [2]: −; Behavior of gene caused by administration of chemical substance, Gene No. 2494 [2]: −; Behavior of gene caused by administration of chemical substance, Gene No. 2546 [2]: −; Behavior of gene caused by administration of chemical substance, Gene No. 3776 [2]: −; Behavior of gene caused by administration of chemical substance, Gene No. 3929 [2]: −; Behavior of gene caused by administration of chemical substance, Gene No. 1119 [2]: −; Behavior of gene caused by administration of chemical substance, Gene No. 6742 [2]: −; Behavior of gene caused by administration of chemical substance, Gene No. 5634 [2]: −; Behavior of gene caused by administration of chemical substance, Gene No. 5726 [2]: −; Mutagenicity by Ames test [3]: M−; Carcinogenicity [4]: C+"
"CCC1(c2ccccc2)C(=O)NC(=O)NC1=O [TS008, Phenobarbital]",+,−,−,−,−,+,−,−,+,+,−,+,+,+,+,+,−,−,+,+,"Behavior of gene caused by administration of chemical substance, Gene No. 893 [2]: +; Behavior of gene caused by administration of chemical substance, Gene No. 6026 [2]: +; Behavior of gene caused by administration of chemical substance, Gene No. 154 [2]: +; Behavior of gene caused by administration of chemical substance, Gene No. 1993 [2]: +; Behavior of gene caused by administration of chemical substance, Gene No. 813 [2]: +; Behavior of gene caused by administration of chemical substance, Gene No. 2494 [2]: +; Behavior of gene caused by administration of chemical substance, Gene No. 2546 [2]: +; Behavior of gene caused by administration of chemical substance, Gene No. 3776 [2]: −; Behavior of gene caused by administration of chemical substance, Gene No. 3929 [2]: +; Behavior of gene caused by administration of chemical substance, Gene No. 1119 [2]: +; Behavior of gene caused by administration of chemical substance, Gene No. 6742 [2]: +; Behavior of gene caused by administration of chemical substance, Gene No. 5634 [2]: +; Behavior of gene caused by administration of chemical substance, Gene No. 5726 [2]: −; Mutagenicity by Ames test [3]: M−"
